Results taken from patent US12209087B2, “AKT1 modulators” (Alterome Therapeutics, Inc., priority 2022, dated 2025).

Molecular target: T1, full length AKT E17K (Homo sapiens, UniProt P31749, E17K)
T1 construct: host or cells: HEK-293 (ATCC CRL-1573)
Assay: NanoBRET Target Engagement (TE) Assay
Type: cell-based
Conditions: competitive displacement of tracer in cells, read-out: AKT1 E17K IC50
How it was run: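 Compound and tracer incubated 2 h before luminescence at donor 450 nm and acceptor 600 nm, with extracellular signal inhibited. EC50 by sigmoidal variable-slope regression.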

T1 sequence (P31749 whole entry E17K): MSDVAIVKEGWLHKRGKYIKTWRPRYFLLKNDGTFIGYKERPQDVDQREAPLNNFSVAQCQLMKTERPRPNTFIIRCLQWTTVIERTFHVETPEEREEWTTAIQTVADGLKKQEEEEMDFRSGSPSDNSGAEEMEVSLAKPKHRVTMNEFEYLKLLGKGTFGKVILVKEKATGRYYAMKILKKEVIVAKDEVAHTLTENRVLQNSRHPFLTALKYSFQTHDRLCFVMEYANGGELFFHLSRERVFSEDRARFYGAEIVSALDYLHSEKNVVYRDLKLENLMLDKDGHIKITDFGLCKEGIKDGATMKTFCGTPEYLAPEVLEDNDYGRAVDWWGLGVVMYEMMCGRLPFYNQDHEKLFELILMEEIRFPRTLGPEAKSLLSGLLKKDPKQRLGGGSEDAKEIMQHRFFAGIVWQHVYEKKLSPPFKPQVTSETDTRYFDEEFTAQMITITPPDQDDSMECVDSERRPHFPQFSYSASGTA

SMILES	IC50 [µM]
Cc1cc2nc(-c3cccnc3N)n(-c3ccc(CN4CCC(Nc5ccnc(C#N)n5)CC4)cc3)c2nc1C#N [Example 565, 2-(2-Aminopyridin-3-yl)-3-(4-((4-((2-cyanopyrimidin-4-yl)amino)piperidin-1-yl)methyl)phenyl)-6-methyl-3H-imidazo[4,5-b]pyridine-5-carbonitrile]	< 0.015
N#Cc1nccc(NC2CCN(Cc3ccc(-n4c(-c5nccnc5N)nc5ccc(-c6cn(CF)nn6)nc54)cc3)CC2)n1 [Example 628, 4-((1-(4-(2-(3-Aminopyrazin-2-yl)-5-(1-(fluoromethyl)-1H-1,2,3-triazol-4-yl)-3H-imidazo[4,5-b]pyridin-3-yl)benzyl)piperidin-4-yl)amino)pyrimidine-2-carbonitrile]	< 0.015
N#Cc1nccc(N2CCN(Cc3ccc(-n4c(-c5cccnc5N)nc5ccc(-c6cccnc6C#N)nc54)cc3)CC2)n1 [Example 424, 4-(4-(4-(2-(2-Aminopyridin-3-yl)-5-(2-cyanopyridin-3-yl)-3H-imidazo[4,5-b]pyridin-3-yl)benzyl)piperazin-1-yl)pyrimidine-2-carbonitrile]	0.015 to 0.06
CCc1ccc2nc(-c3cccnc3N)n(-c3ccc(CN4CCC(Nc5ccnc(C#N)n5)CC4)cc3)c2n1 [Example 397, 4-((1-(4-(2-(2-Aminopyridin-3-yl)-5-ethyl-3H-imidazo[4,5-b]pyridin-3-yl)benzyl)piperidin-4-yl)amino)pyrimidine-2-carbonitrile]	< 0.015

Continued, values first:

IC50 [µM]	SMILES
0.015 to 0.06	N#Cc1nccc(NC2CCN(Cc3ccc(-n4c(-c5cccnc5N)nc5ccc(-c6cccc(F)c6)nc54)cc3)CC2)n1 [Example 357, 4-((1-(4-(2-(2-Aminopyridin-3-yl)-5-(3-fluorophenyl)-3H-imidazo[4,5-b]pyridin-3-yl)benzyl)piperidin-4-yl)amino)pyrimidine-2-carbonitrile]
0.015 to 0.06	N#Cc1nccc(NC2CCN(Cc3ccc(-n4c(-c5cccnc5N)nc5ccc(-c6cnccc6C#N)nc54)cc3)CC2)n1 [Example 384, 4-((1-(4-(2-(2-Aminopyridin-3-yl)-5-(4-cyanopyridin-3-yl)-3H-imidazo[4,5-b]pyridin-3-yl)benzyl)piperidin-4-yl)amino)pyrimidine-2-carbonitrile]
0.015 to 0.06	N#Cc1nccc(N2C[C@H]3CN(Cc4ccc(-n5c(-c6cccnc6N)nc6ccc(-c7ccc(F)cc7)nc65)cc4)C[C@H]3C2)n1 [Example 449, 4-((3aR,6aS)-5-(4-(2-(2-Aminopyridin-3-yl)-5-(4-fluorophenyl)-3H-imidazo[4,5-b]pyridin-3-yl)benzyl)hexahydropyrrolo[3,4-c]pyrrol-2(1H)-yl)pyrimidine-2-carbonitrile]
0.06 to 0.6	N#Cc1nccc(NC2CCN(Cc3ccc(-n4c(-c5cccnc5N)nc5ncccc54)cc3)CC2)n1 [Example 533, 4-((1-(4-(2-(2-Aminopyridin-3-yl)-1H-imidazo[4,5-b]pyridin-1-yl)benzyl)piperidin-4-yl)amino)pyrimidine-2-carbonitrile]
0.015 to 0.06	Cc1nnc(-c2ccc3nc(-c4cccnc4N)n(-c4ccc(CN5CCC(Nc6ccnc(C#N)n6)CC5)cc4)c3n2)o1 [Example 566, 4-((1-(4-(2-(2-Aminopyridin-3-yl)-5-(5-methyl-1,3,4-oxadiazol-2-yl)-3H-imidazo[4,5-b]pyridin-3-yl)benzyl)piperidin-4-yl)amino)pyrimidine-2-carbonitrile]
< 0.015	CC(C)n1cc(-c2ccc3nc(-c4cccnc4N)n(-c4ccc(CN5CCC(Nc6ccnc(C#N)n6)CC5)cc4)c3n2)nn1 [Example 611, 4-((1-(4-(2-(2-Aminopyridin-3-yl)-5-(1-isopropyl-1H-1,2,3-triazol-4-yl)-3H-imidazo[4,5-b]pyridin-3-yl)benzyl)piperidin-4-yl)amino)pyrimidine-2-carbonitrile]
< 0.015	N#Cc1nccc(NC2CCN(Cc3ccc(-n4c(-c5cccnc5N)nc5ccc(C6=CCCC6)nc54)cc3)CC2)n1 [Example 453, 4-((1-(4-(2-(2-aminopyridin-3-yl)-5-(cyclopent-1-en-1-yl)-3H-imidazo[4,5-b]pyridin-3-yl)benzyl)piperidin-4-yl)amino)pyrimidine-2-carbonitrile]
< 0.015	N#Cc1nccc(NC2CCN(Cc3ccc(-n4c(-c5cccnc5N)nc5ccc(-c6ncccc6C#N)nc54)cc3)CC2)n1 [Example 408, 4-((1-(4-(2-(2-Aminopyridin-3-yl)-5-(3-cyanopyridin-2-yl)-3H-imidazo[4,5-b]pyridin-3-yl)benzyl)piperidin-4-yl)amino)pyrimidine-2-carbonitrile]
< 0.015	[2H]C([2H])(c1ccc(-n2c(-c3cccnc3N)nc3ccc(Br)nc32)cc1)N1CCC(Nc2ccnc(C#N)n2)CC1 [Example 486, 4-((1-((4-(2-(2-Aminopyridin-3-yl)-5-bromo-3H-imidazo[4,5-b]pyridin-3-yl)phenyl)methyl-d2)piperidin-4-yl)amino)pyrimidine-2-carbonitrile]
< 0.015	N#Cc1nccc(N2CCN(Cc3ccc(-n4c(-c5cccnc5N)nc5ccc(-c6cccnc6)nc54)cc3)CC2)n1 [Example 432]

Same assay, conditions: competitive tracer displacement in living cells, read-out: AKT1 E17K IC50

SMILES	IC50 [µM]
N#Cc1cccc(OC2CCN(Cc3ccc(-n4c(-c5cccnc5N)nc5cccnc54)cc3)CC2)n1 [Example 4, 6-((1-(4-(2-(2-Aminopyridin-3-yl)-3H-imidazo[4,5-b]pyridin-3-yl)benzyl)piperidin-4-yl)oxy)picolinonitrile]	0.6 to 10
N#Cc1ccnc(NC2CCN(Cc3ccc(-n4c(-c5cccnc5N)nc5ccc(N6CCOCC6)nc54)cc3)CC2)n1 [Example 240, 2-((1-(4-(2-(2-Aminopyridin-3-yl)-5-morpholino-3H-imidazo[4,5-b]pyridin-3-yl)benzyl)piperidin-4-yl)amino)pyrimidine-4-carbonitrile]	0.015 to 0.06
N#Cc1ncnc(N2CC[C@@]3(CCN(Cc4ccc(-n5c(-c6cccnc6N)nc6ccc(-c7ccccc7)nc65)cc4)C3)C2)n1 [Example 255, (R)-4-(7-(4-(2-(2-aminopyridin-3-yl)-5-phenyl-3H-imidazo[4,5-b]pyridin-3-yl)benzyl)-2,7-diazaspiro[4.4]nonan-2-yl)-1,3,5-triazine-2-carbonitrile]	< 0.015
N#Cc1cnccc1C(=O)N1CCN(Cc2ccc(-n3c(-c4cccnc4N)nc4ccc(-c5ccccc5)nc43)cc2)CC1 [Example 144, 4-(4-(4-(2-(2-Aminopyridin-3-yl)-5-phenyl-3H-imidazo[4,5-b]pyridin-3-yl)benzyl)piperazine-1-carbonyl)nicotinonitrile]	0.6 to 10
N#Cc1cncc(N2CCN(Cc3ccc(-n4c(-c5cccnc5N)nc5cccnc54)cc3)CC2)n1 [Example 19, 6-(4-(4-(2-(2-Aminopyridin-3-yl)-3H-imidazo[4,5-b]pyridin-3-yl)benzyl)piperazin-1-yl)pyrazine-2-carbonitrile]	0.6 to 10
N#Cc1cc(C(=O)NC2C3CCC2CN(Cc2ccc(-n4c(-c5cccnc5N)nc5ccc(-c6ccccc6)nc54)cc2)C3)ncn1 (stereo not shown) [Example 230, N-(3-(4-(2-(2-aminopyridin-3-yl)-5-phenyl-3H-imidazo[4,5-b]pyridin-3-yl)benzyl)-3-azabicyclo[3.2.1]octan-8-yl)-6-cyanopyrimidine-4-carboxamide]	0.06 to 0.6
N#Cc1ccnc(N2CCN(Cc3ccc(-n4c(-c5cccnc5N)nc5ccc(-c6ccccc6)nc54)cc3)CC23CC3)n1 [Example 199, 2-(7-(4-(2-(2-Aminopyridin-3-yl)-5-phenyl-3H-imidazo[4,5-b]pyridin-3-yl)benzyl)-4,7-diazaspiro[2.5]octan-4-yl)pyrimidine-4-carbonitrile]	0.06 to 0.6
N#Cc1nccc(N2CCN(Cc3ccc(-n4c(-c5cccnc5N)nc5ccc(-c6cccc(=O)[nH]6)nc54)cc3)CC2)n1 [Example 238, 4-(4-(4-(2-(2-Aminopyridin-3-yl)-5-(6-oxo-1,6-dihydropyridin-2-yl)-3H-imidazo[4,5-b]pyridin-3-yl)benzyl)piperazin-1-yl)pyrimidine-2-carbonitrile]	0.015 to 0.06

Now from value to compound:

IC50 [µM]	SMILES
0.06 to 0.6	N#Cc1cccc(C(=O)N2CCN(Cc3ccc(-n4c(-c5cccnc5N)nc5ccc(-c6ccccc6)nc54)cc3)CC2)n1 [Example 138, 6-(4-(4-(2-(2-Aminopyridin-3-yl)-5-phenyl-3H-imidazo[4,5-b]pyridin-3-yl)benzyl)piperazine-1-carbonyl)picolinonitrile]
< 0.015	COc1ccc2nc(-c3cccnc3N)n(-c3ccc(CN4CCC(Nc5ccnc(C#N)n5)CC4)cc3)c2n1 [Example 287, 4-((1-(4-(2-(2-Aminopyridin-3-yl)-5-methoxy-3H-imidazo[4,5-b]pyridin-3-yl)benzyl)piperidin-4-yl)amino)pyrimidine-2-carbonitrile]
0.06 to 0.6	N#Cc1cccc(OC2CCN(Cc3ccc(-n4c(-c5cccnc5N)nc5ccc(-c6ccccc6)nc54)cc3)CC2)n1 [Example 7, 6-((1-(4-(2-(2-Aminopyridin-3-yl)-5-phenyl-3H-imidazo[4,5-b]pyridin-3-yl)benzyl)piperidin-4-yl)oxy)picolinonitrile]
0.6 to 10	N#Cc1cnnc(NCc2ccc(-n3c(-c4cccnc4N)nc4cccnc43)cc2)c1 [Example 50, 6-((4-(2-(2-Aminopyridin-3-yl)-3H-imidazo[4,5-b]pyridin-3-yl)benzyl)amino)pyridazine-4-carbonitrile]
0.06 to 0.6	N#Cc1nccc(N2CCN(Cc3ccc(-n4c(-c5cccnc5N)nc5cccnc54)cc3)CC2)n1 [Example 18, 4-(4-(4-(2-(2-Aminopyridin-3-yl)-3H-imidazo[4,5-b]pyridin-3-yl)benzyl)piperazin-1-yl)pyrimidine-2-carbonitrile]
0.015 to 0.06	N#Cc1cc(C(=O)NC2CCN(Cc3ccc(-n4c(-c5cccnc5N)nc5ccc(-c6ccccc6)nc54)cc3)CC2)ncn1 [Example 117, N-(1-(4-(2-(2-aminopyridin-3-yl)-5-phenyl-3H-imidazo[4,5-b]pyridin-3-yl)benzyl)piperidin-4-yl)-6-cyanopyrimidine-4-carboxamide]
